Laboratory results taken from patent US8952024B2, “Herbicidal pyrimidone derivatives” (E I du Pont de Nemours and Company, priority 2009, dated 2015).

Key:
Assay in all cases: Test B pre-/postemergence plant response
Type in all cases: in vivo
[1] = test system: soybean (Glycine max)
Summary of the method: (§1)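 Ratings reflect visual comparison with untreated controls 13 to 15 days after application, from 0 (no effect) to 100 (complete control). Application was preemergence to seeded loam/sand soil or postemergence to 1- to 4-leaf plants, with compound in a non-phytotoxic, surfactant-containing solvent.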

[2] = test system: Surinam grass (Brachiaria decumbens)
Summary of the method: as §1

[3] = test system: giant foxtail (Setaria faberii)
Summary of the method: as §1

[4] = test system: blackgrass (Alopecurus myosuroides)
Summary of the method: as §1

[5] = test system: velvetleaf (Abutilon theophrasti)
Summary of the method: as §1

[6] = test system: yellow nutsedge (Cyperus esculentus)
Summary of the method: as §1

[7] = test system: downy bromegrass (Bromus tectorum)
Summary of the method: as §1

[8] = test system: johnsongrass (Sorghum halepense)
Summary of the method: as §1

[9] = test system: green foxtail (Setaria viridis)
Summary of the method: as §1

[10] = test system: cocklebur (Xanthium strumarium)
Summary of the method: as §1

[11] = test system: large crabgrass (Digitaria sanguinalis)
Summary of the method: as §1

[12] = test system: kochia (Kochia scoparia)
Summary of the method: as §1

[13] = test system: morningglory (Ipomoea coccinea)
Summary of the method: as §1

[14] = test system: wild oat (Avena fatua)
Summary of the method: as §1

[15] = test system: corn (Zea mays)
Summary of the method: as §1

[16] = test system: goosegrass (Eleusine indica)
Summary of the method: as §1

[17] = test system: woolly cupgrass (Eriochloa villosa)
Summary of the method: as §1

[18] = 31 g ai/ha, postemergence, scale 0 to 100, 0 is no effect, 100 is complete control
[19] = 62 g ai/ha, postemergence, 0 is no effect, 100 is complete control, 13 to 15 days
[20] = Postemergence, 250 g ai/ha, scale 0 to 100 (0 no effect, 100 complete control)
[21] = Postemergence, 125 g ai/ha, visual rating after 13 to 15 days, scale 0 (no effect) to 100 (complete control)

SMILES: CCOCCn1c(-c2ccccc2)ncc(C(=O)C2=C(O)CCCC2=O)c1=O [Compound 96]
- Plant response rating, Soybean [1, 18]: 65
- Soybean plant response rating (0 to 100 scale) [1, 19]: 75
- Plant response rating, Soybean [1, 20]: 98
- Plant response rating, Surinam Grass [2, 18]: 75
- Surinam Grass plant response rating (0 to 100 scale) [2, 19]: 75
- Plant response rating, Surinam Grass [2, 20]: 85
- Plant response rating, Foxtail, Giant [3, 18]: 65
- Foxtail, Giant plant response rating (0 to 100 scale) [3, 19]: 70
- Plant response rating, Foxtail, Giant [3, 20]: 85
- Plant response rating, Blackgrass [4, 18]: 5
- Blackgrass plant response rating (0 to 100 scale) [4, 19]: 20
- Plant response rating, Blackgrass [4, 21]: 30
- Plant response rating, Blackgrass [4, 20]: 40
- Plant response rating, Velvetleaf [5, 18]: 95
- Velvetleaf plant response rating (0 to 100 scale) [5, 19]: 98
- Plant response rating, Velvetleaf [5, 20]: 100
- Plant response rating, Nutsedge, Yellow [6, 18]: 70
- Nutsedge, Yellow plant response rating (0 to 100 scale) [6, 19]: 70
- Plant response rating, Nutsedge, Yellow [6, 20]: 85
- Plant response rating, Bromegrass, Downy [7, 18]: 0
- Bromegrass, Downy plant response rating (0 to 100 scale) [7, 19]: 0
- Plant response rating, Bromegrass, Downy [7, 21]: 5
- Plant response rating, Bromegrass, Downy [7, 20]: 10
- Plant response rating, Johnsongrass [8, 18]: 20
- Johnsongrass plant response rating (0 to 100 scale) [8, 19]: 45
- Plant response rating, Johnsongrass [8, 20]: 80
- Plant response rating, Foxtail, Green [9, 18]: 50
- Foxtail, Green plant response rating (0 to 100 scale) [9, 19]: 65
- Plant response rating, Foxtail, Green [9, 20]: 85
- Plant response rating, Cocklebur [10, 18]: 75
- Cocklebur plant response rating (0 to 100 scale) [10, 19]: 95
- Plant response rating, Cocklebur [10, 21]: 98
- Plant response rating, Cocklebur [10, 20]: 100
- Plant response rating, Crabgrass, Large [11, 18]: 75
- Crabgrass, Large plant response rating (0 to 100 scale) [11, 19]: 80
- Plant response rating, Crabgrass, Large [11, 21]: 85
- Plant response rating, Crabgrass, Large [11, 20]: 90
- Plant response rating, Kochia [12, 18]: 65
- Kochia plant response rating (0 to 100 scale) [12, 19]: 85
- Plant response rating, Kochia [12, 20]: 100
- Plant response rating, Morningglory [13, 18]: 65
- Morningglory plant response rating (0 to 100 scale) [13, 19]: 95
- Plant response rating, Morningglory [13, 20]: 100
- Plant response rating, Oat, Wild [14, 18]: 0
- Oat, Wild plant response rating (0 to 100 scale) [14, 19]: 5
- Plant response rating, Oat, Wild [14, 20]: 30
- Plant response rating, Corn [15, 18]: 45
- Corn plant response rating (0 to 100 scale) [15, 19]: 60
- Plant response rating, Corn [15, 21]: 65
- Plant response rating, Corn [15, 20]: 80
- Plant response rating, Goosegrass [16, 18]: 70
- Goosegrass plant response rating (0 to 100 scale) [16, 19]: 70
- Plant response rating, Goosegrass [16, 20]: 85
- Plant response rating, Cupgrass, Woolly [17, 18]: 70
- Cupgrass, Woolly plant response rating (0 to 100 scale) [17, 19]: 75
- Plant response rating, Cupgrass, Woolly [17, 21]: 85
- Plant response rating, Cupgrass, Woolly [17, 20]: 85
